Source: BindingDB's records for doi:10.1021/cb400468c (Massachusetts Institute of Technology, 2013)

Legend:
[1] = target: T1, Gag-Pol polyprotein [484-582,I497V,V499I,E519D,G532V,I538V,R541K,D544E,Q553K,V566A,L573M] (Human immunodeficiency virus, UniProt Q9QBY3, D544E/E519D/G532V/I497V/I538V/L573M/Q553K/R541K/V499I/V566A); test: Inhibition Assay
T1 construct: 484-582
Method: (§1) HIV protease inhibitor activities were determined by fluorescence resonance energy transfer (FRET) method. Protease substrate, Arg-Glu-(EDANS)-Ser-Gln-Asn-Tyr-Pro-Ile-Val-Gln-Lys(DABCYL)-Arg, was labeled with the energy transfer donor (EDANS) and acceptor (DABCYL) dyes at its two ends to perform FRET. Fluorescence measurements were carried out on an EnVision plate reader (PerkinElmer).

[2] = target: T2, Gag-Pol polyprotein [484-582,I494L,I497V,V499I,D514N,E519D,R541K,D544E,Q553K,N572D,L573M] (Human immunodeficiency virus, UniProt Q9QBY3, D514N/D544E/E519D/I494L/I497V/L573M/N572D/Q553K/R541K/V499I); test: Inhibition Assay
T2 construct: 484-582
Method: as §1

[3] = target: T3, Gag-Pol polyprotein [484-582,I494L,I497V,V499I,E519D,I534V,R541K,D544E,Q553K,A555V,L573M] (Human immunodeficiency virus, UniProt Q9QBY3, A555V/D544E/E519D/I494L/I497V/I534V/L573M/Q553K/R541K/V499I); test: Inhibition Assay
T3 construct: 484-582
Method: as §1

HIV-1 protease = HIV-1 protease (Human immunodeficiency virus, UniProt O90785); test: Inhibition Assay
Method: as §1

[4] = target: T4, Gag-Pol polyprotein [484-582,I497V,V499I,E519D,R541K,D544E,Q553K,A555V,G557S,I568V,L574M,L573M] (Human immunodeficiency virus, UniProt Q9QBY3, A555V/D544E/E519D/G557S/I497V/I568V/L573M/L574M/Q553K/R541K/V499I); test: Inhibition Assay
T4 construct: 484-582
Method: as §1

[5] = target: HIV WT-C pol protein (wild-type clade C) (Human immunodeficiency virus, UniProt P12497); test: Drug Susceptibility Assay
Method: (§2) Drug susceptibility assays were carried out by Monogram Bioscience against wild-type HIV-1 control and patient-derived strains of wild-type HIV-1 from clades A, B, and C, and two multi-drug-resistant HIV-1 variants.

MDRC4 = MDRC4 (Human immunodeficiency virus, UniProt P12497); test: Drug Susceptibility Assay
Method: as §2

[6] = target: HIV WT-A pol protein (wild-type clade A) (Human immunodeficiency virus 1, UniProt P12497); test: Drug Susceptibility Assay
Method: as §2

MDR1 = MDR1 (Human immunodeficiency virus, UniProt P12497); test: Drug Susceptibility Assay
Method: as §2

[7] = target: T5, Gag-Pol polyprotein [489-892] (Human immunodeficiency virus, UniProt P12497); test: Drug Susceptibility Assay
T5 construct: 489-892
Method: as §2

[8] = target: T6, Gag-Pol polyprotein [489-892,N526H,R530K,V566I,I582L,V648I,Q690K,I723V,C750S,T788A,Q795E,T874A,V881I,P882Q] (Human immunodeficiency virus, UniProt P12497, C750S/I582L/I723V/N526H/P882Q/Q690K/Q795E/R530K/T788A/T874A/V566I/V648I/V881I); test: Drug Susceptibility Assay
T6 construct: 489-892
Method: as §2

SMILES | Ki [1] [nM] | Ki [2] [nM] | Ki [3] [nM] | Ki (HIV-1 protease) [nM] | Ki [4] [nM] | EC50 [5] [nM] | EC50 (MDRC4) [nM] | EC50 [6] [nM] | EC50 (MDR1) [nM] | EC50 [7] [nM] | EC50 [8] [nM]
COc1ccc(S(=O)(=O)N(CCCc2ccccc2)C[C@@H](O)[C@H](Cc2ccccc2)NC(=O)c2cccc(O)c2)cc1 [3-Hydroxy-N-[(1S,2R)-2-hydroxy-3-[[(4-methoxyphenyl)sulfonyl](3-phenylpropyl)amino]-1-(phenylmethyl)propyl]-benzamide (AF-78)] | 42.9 | 2.54 | 5.89 | 0.437 | 23.8 |  |  |  |  |  | 
CC[C@H](C)CN(C[C@@H](O)[C@H](Cc1ccccc1)NC(=O)c1cccc(O)c1)S(=O)(=O)c1ccc(-c2ccno2)s1 [3-Hydroxy-N-[(1S,2R)-2-hydroxy-3-[[[5-(5-isoxazolyl)-2-thienyl]sulfonyl][(2S)-2-methylbutyl]amino]-1-(phenylmethyl)propyl]-benzamide (AF-71)] | 18.2 | 2.95 | 30 | 3.33 | 44.8 |  |  |  |  |  | 
CC[C@H](C)[C@H](NC(C)=O)C(=O)N[C@@H](Cc1ccccc1)[C@H](O)CN(CC(C)C)S(=O)(=O)c1ccc(OC)cc1 [(2S,3S)-2-(Acetylamino)-N-[(1S,2R)-2-hydroxy-3-[[(4-methoxyphenyl)sulfonyl](2-methylpropyl)amino]-1-(phenylmethyl)propyl]-3-methyl-pentanamide (AF-68)] | 0.819 | 0.049 | 0.144 | 0.146 | 1.03 | 3 | 15.4 | 2.4 | 15.1 | 3.5 | 1.6
CC[C@H](C)CN(C[C@@H](O)[C@H](Cc1ccccc1)NC(=O)C(NC(C)=O)[C@@H](C)CC)S(=O)(=O)c1ccc2ncsc2c1 (stereo partly drawn) [(2S,3S)-2-(Acetylamino)-N-[(1S,2R)-3-[(6-benzothiazolylsulfonyl)[(2S)-2-methylbutyl]amino]-2-hydroxy-1-(phenylmethyl)propyl]-3-methyl-pentanamide (AG-23)] | 0.376 | 0.028 | 0.092 | 0.021 | 0.048 | 3.5 | 8.7 | 2.3 | 7.2 | 2.7 | 1.9
O=C(N[C@@H](Cc1ccccc1)[C@H](O)CN(CCCc1ccccc1)S(=O)(=O)c1ccc2ncsc2c1)c1cccc(O)c1 [N-[(1S,2R)-3-[(6-Benzothiazolylsulfonyl)(3-phenylpropyl)amino]-2-hydroxy-1-(phenylmethyl)propyl]-3-hydroxy-benzamide (AF-69)] | 19.2 | 2 | 2.27 | 0.07 | 9.96 |  |  |  |  |  | 
O=C(N[C@@H](Cc1ccccc1)[C@H](O)CN(CC1CCCCC1)S(=O)(=O)c1ccc2ncsc2c1)c1cccc(O)c1 [N-[(1S,2R)-3-[(6-Benzothiazolylsulfonyl)(cyclohexylmethyl)amino]-2-hydroxy-1-(phenylmethyl)propyl]-3-hydroxy-benzamide (AF-72)] | 1.33 | 0.383 | 4.82 | 0.129 | 2.75 | 94.6 | 165 | 48.6 | 99.1 | 63.7 | 37.9
COc1ccc(S(=O)(=O)N(CC2CCCCC2)C[C@@H](O)[C@H](Cc2ccccc2)NC(=O)c2cccc(O)c2)cc1 [N-[(1S,2R)-3-[(Cyclohexylmethyl)[(4-methoxyphenyl)sulfonyl]amino]-2-hydroxy-1-(phenylmethyl)propyl]-3-hydroxy-benzamide (AF-77)] | 2.04 | 0.49 | 3.4 | 0.546 | 2.47 | 65.7 | 105 | 38.4 | 86.9 | 47.3 | 22.4
CC(C)CN(C[C@@H](O)[C@H](Cc1ccccc1)NC(=O)O[C@H]1CCOC1)S(=O)(=O)c1ccc(N)cc1 [VX-478] |  |  |  |  |  | 3.7 | 17.5 | 2.6 | 15.6 | 3 | 1.8
